# Measured values as given in patent US7598244B2, “[1,2,4]triazolo[1,5,a]pyrimidin-2-ylurea derivative and use thereof” (Nippon Kayaku Kabushiki Kaisha, priority 2003, dated 2009).
# Where two headings read alike, the source gives them in different places.
# Columns and labels:
# [1] = tested on: (C57BL/6XB6. C—H2^bml) F1 mice; experiment: Life-lengthening effect on graft versus host disease (GVHD); assay type: in vivo, mouse; settings: oral, once a day
# Protocol: Life-Lengthening Effect on Graft Versus Host Disease (GVHD)
# The present test was carried out by modification of the method of Jonathan et al. (Jonathan et al., Blood, p. 93 (1999)). First, 6.0 Gy X-ray was applied to (C57BL/6XB6. C—H2^bml) F1 mice (produced by mating 6XB6.C—H2^bml mice (Jackson Laboratory) with C57BL/6 mice (Charles River Japan); female; 8 to 12-week-old). Thereafter, CD8 positive T cells (1.25×10^6 cells) prepared from the splenic cells of C57BL/6 mice (Charles River Japan; female; 8-week-old) were intravenously injected into the above (C57BL/6XB6. C—H2^bml) F1 mice. From the day before the injection, the test compound having each diluted concentration or 0.5% carboxymethyl cellulose used as a solvent was orally administered to the mice once a day for 7 to 30 consecutive days. The day on which the transplantation was conducted was defined as day 0. Based on the median of the survival days of each group, the prolongation rate of such survival dates was calculated using the following formula (7). Thus, the effect of the test compound on GVHD was analyzed.
# [formula] • Eexp: Median of survival days of test compound administration group • Cexp: Median of survival days of solvent administration group
# mouse splenic cells = experiment: Inhibitory action on blastogenesis of mouse splenic cells ([3H]-thymidine incorporation); assay type: cell-based; settings: Mus musculus, Lymphocyte, 72 hours
# Protocol: Inhibitory Action on Blastogenesis of Mouse Splenic Cells
# The spleen was excised from each of BALB/c mice (Charles River Japan; female; 10-week-old), and it was allowed to pass through a mesh to obtain a single cell suspension. This single cell suspension was prepared to be 1.0×10^6 cells/ml. Thereafter, 200 μl of the suspension was fractionated into each well of a 96-well plate. Thereafter, as blastogenic stimulation, 5 μg/ml concanavalin A (Pharmacia) or 25 μg/ml Escherichia coli-derived lipopolysaccharide (DIFCO) was added to the well, and then, a solution containing a test compound with each different concentration was further added thereto at an amount of 20 μl/well. The obtained mixture was cultured at 37° C. for 72 hours in an incubator containing 5% carbon dioxide. Thereafter, a 1 μCi/10 μl/well [^3H]-thymidine solution was added thereto 64 hours after initiation of the culture. After completion of the culture (72 hours later), the cells were captured on a filter using a cell harvester, and they were then dried. Thereafter, scintillator was added thereto, and the radioactivity of [^3H]-thymidine incorporated into the cells was then measured using a liquid scintillation counter. The inhibition rate of the DNA synthesis was calculated using the aforementioned formula (3). Thereafter, the concentration of a test compound necessary for inhibition of 50% (IC50 value) was obtained.
# CD1a = experiment: Expression of antigen-presenting and costimulatory molecules of human peripheral blood-derived dendritic cells: CD1a; assay type: cell-based; settings: Analyte 1 (dendritic cells of one healthy subject), 3 days
# Protocol: (§1) Action on Expression of Antigen-Presenting Molecules and Costimulatory Molecules of Human Peripheral Blood-Derived Dendritic Cells
# The dendritic cells obtained by the same method as in Test Example 2 were suspended in RPMI 1640 comprising 10% FCS containing 500 U/ml GM-CSF, 50 ng/ml IL-4, and 100 U/ml human recombinant tumor necrosis factor (2.5×10^6 cells/ml). Thereafter, the suspension was inoculated into a 6-well plate at an amount of 2.0 ml/well, and the test compound was then added thereto. The mixture was cultured at 37° C. for 3 days in an incubator containing 5% carbon dioxide. Thereafter, the suspended cells were recovered. The cells were then stained with fluoroisothiocyanate-labeled mouse monoclonal antibodies reacting with MHC class I (Bechman Coulter), CD1a (Immunotech), CD40 (Pharmingen), CD80 (Pharmingen), and CD83 (Immunotech). Thereafter, mean fluorescence intensity and the ratio of positive cells were measured by flow cytometry. The expression level was calculated by the formula “the mean fluorescence intensity x the ratio of positive cells,” and the inhibition rate of the surface antigen expression level of dendritic cells was then obtained by the following formula (8). […]
# CD40 = experiment: Expression of antigen-presenting and costimulatory molecules of human peripheral blood-derived dendritic cells: CD40; assay type: cell-based
# Protocol: as §1
# The dendritic cells obtained by the same method as in Test Example 2 were suspended in RPMI 1640 comprising 10% FCS containing 500 U/ml GM-CSF, 50 ng/ml IL-4, and 100 U/ml human recombinant tumor necrosis factor (2.5×10^6 cells/ml). Thereafter, the suspension was inoculated into a 6-well plate at an amount of 2.0 ml/well, and the test compound was then added thereto. The mixture was cultured at 37° C. for 3 days in an incubator containing 5% carbon dioxide. Thereafter, the suspended cells were recovered. The cells were then stained with fluoroisothiocyanate-labeled mouse monoclonal antibodies reacting with MHC class I (Bechman Coulter), CD1a (Immunotech), CD40 (Pharmingen), CD80 (Pharmingen), and CD83 (Immunotech). Thereafter, mean fluorescence intensity and the ratio of positive cells were measured by flow cytometry. The expression level was calculated by the formula “the mean fluorescence intensity x the ratio of positive cells,” and the inhibition rate of the surface antigen expression level of dendritic cells was then obtained by the following formula (8).
# [formula] • Eexp: Expression level of surface antigens of dendritic cells cultured in the presence of test compound • Cexp: Expression level of surface antigens of dendritic cells cultured in the absence of test compound
structure (smiles),measurement,setting,value
"CC(C)NC(=O)Nc1nc2nccc(-c3cccs3)n2n1 [Example 029, 1-isopropyl-3-(7-thiophen-2-yl[1,2,4]triazolo[1,5-a]pyrimidin-2-yl)urea]",Lengthening rate of survival days (%),[1]; 25 mg/kg/single administration,75%
same,Lengthening rate of survival days (%),[1]; 100 mg/kg/single administration,200%
same,IC50,"mouse splenic cells; 5 μg/ml concanavalin A, read-out: Lymphocyte blastogenesis IC50 (μM), ConA stimulation",0.71 µM
same,IC50,"mouse splenic cells; 25 μg/ml Escherichia coli-derived lipopolysaccharide, read-out: Lymphocyte blastogenesis IC50 (μM), LPS stimulation",0.3 µM
same,"Expression inhibition rate by test compound (%), CD1a",CD1a,55.6%
same,"Expression inhibition rate by test compound (%), CD40","CD40; Analyte 1, 3 days",10.8%
same,"Expression inhibition rate by test compound (%), CD40","CD40; Analyte 2, 3 days",−5.4%
same,"Expression inhibition rate by test compound (%), CD40","CD40; Analyte 3, 3 days",12.9%
